Measurements as given in ChEMBL document CHEMBL3301458, “MMV Malaria Box hERG screening”.
Active and inactive are the calls of the source. How the calls were made is not given here.

Tests used:
hERG (Kv11.1, KCNH2) [1] = molecular target: T1, hERG (Kv11.1, KCNH2) (Homo sapiens, UniProt Q12809); assay: in vitro
Description: MMV: Malaria Box compounds were tested for inhibition of the human ether a go-go related gene (hERG), Kv11.1 channel, using IonWorks 384-well patch clamp electrophysiology at 1.1uM (3 independent assay plates up to 12 cells per concentration).

hERG (Kv11.1, KCNH2) [2] = molecular target: T1, hERG (Kv11.1, KCNH2); assay: in vitro; remark: listed apart in the source
Description: MMV: Malaria Box compounds were tested for inhibition of the human ether a go-go related gene (hERG), Kv11.1 channel, using IonWorks 384-well patch clamp electrophysiology at 11.1uM (3 independent assay plates up to 12 cells per concentration).

T1 sequence (Q12809 whole entry): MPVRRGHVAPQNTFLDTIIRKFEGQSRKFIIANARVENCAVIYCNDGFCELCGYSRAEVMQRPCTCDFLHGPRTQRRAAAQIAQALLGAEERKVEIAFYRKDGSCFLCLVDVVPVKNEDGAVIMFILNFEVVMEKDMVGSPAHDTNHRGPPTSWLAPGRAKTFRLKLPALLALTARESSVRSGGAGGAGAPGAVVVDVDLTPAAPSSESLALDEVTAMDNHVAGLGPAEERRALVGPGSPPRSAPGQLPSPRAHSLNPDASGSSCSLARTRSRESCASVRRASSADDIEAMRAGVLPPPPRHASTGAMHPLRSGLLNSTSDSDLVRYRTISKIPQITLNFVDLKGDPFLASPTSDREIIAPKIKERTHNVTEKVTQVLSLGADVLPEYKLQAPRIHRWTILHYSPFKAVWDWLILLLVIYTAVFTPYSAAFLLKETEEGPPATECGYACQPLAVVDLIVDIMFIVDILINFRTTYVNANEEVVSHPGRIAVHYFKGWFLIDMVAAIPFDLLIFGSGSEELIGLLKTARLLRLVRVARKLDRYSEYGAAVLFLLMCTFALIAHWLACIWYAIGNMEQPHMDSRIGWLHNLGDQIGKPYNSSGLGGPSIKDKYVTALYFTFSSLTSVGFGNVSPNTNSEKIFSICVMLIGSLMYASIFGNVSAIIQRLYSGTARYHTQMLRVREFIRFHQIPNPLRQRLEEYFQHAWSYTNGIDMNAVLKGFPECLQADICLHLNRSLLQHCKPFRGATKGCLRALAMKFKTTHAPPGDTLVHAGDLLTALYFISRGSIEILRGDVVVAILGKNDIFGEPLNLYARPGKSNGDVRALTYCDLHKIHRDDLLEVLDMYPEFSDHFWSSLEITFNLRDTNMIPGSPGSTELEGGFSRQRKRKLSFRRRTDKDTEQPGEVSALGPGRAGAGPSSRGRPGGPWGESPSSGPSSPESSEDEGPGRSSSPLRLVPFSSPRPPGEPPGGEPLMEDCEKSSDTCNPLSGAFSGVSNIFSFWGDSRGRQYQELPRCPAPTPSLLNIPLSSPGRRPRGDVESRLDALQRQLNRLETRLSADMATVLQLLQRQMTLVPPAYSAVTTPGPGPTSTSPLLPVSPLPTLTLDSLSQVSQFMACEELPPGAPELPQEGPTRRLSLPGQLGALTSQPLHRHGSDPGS

Row | SMILES | inhibition at 1.1 µM (hERG (Kv11.1, KCNH2) [1]) [%] | inhibition at 11.1 µM (hERG (Kv11.1, KCNH2) [2])
1 | COc1cc(-c2nc(-c3ccccc3)c(-c3ccccc3)[nH]2)cc(OC)c1O | 11 | 18% (inactive)
2 | COc1cc2c3cc1Oc1c(OC)c(OC)cc4c1C(Cc1ccc(O)c(c1)Oc1ccc(cc1)CC3N(C)CC2)N(C)CC4 (stereo not drawn) | 14 | 69% (active)
3 | CCOC(=O)C1(Cc2ccccc2)CCN(Cc2cccc(OC)c2O)CC1 | 18 | 80% (active)
4 | CCOc1ccc2nc(C)cc(Nc3ccc(N(C)C)cc3)c2c1 | 4 | 3% (inactive)
5 | Cc1cc(C)c2c(c1)OCN(Cc1ccccc1Cl)C2 | 30 | 88% (active)
6 | Cc1ccc2nc(C)cc(Nc3cccc(C(F)(F)F)c3)c2c1 | 48 | 106% (active)
7 | O=C(Nc1ccc(N2CCN(Cc3ccccc3)CC2)cc1)c1cccs1 | 12 | 32%
8 | Cc1cc(N2CCN(C3CCCC3)CC2)n2c(nc3ccccc32)c1C#N | -3 | 45%
9 | CC(C)(C)c1ccc(C2CC3=Nc4ccccc4N(C(=O)c4ccccc4Cl)C(c4ccc(F)cc4)C3=C(O)C2)cc1 (stereo not drawn) | 30 | 88% (active)
10 | CCc1ccc(Nc2cc(C)c3ccc(O)cc3n2)cc1 | 15 | 78% (active)
11 | COc1ccc2sc(N(Cc3cccnc3)C(=O)c3ccc(C#N)cc3)nc2c1 | 14 | 82% (active)
12 | CCOc1ccc(CCNC(=O)c2cccs2)cc1OCC | 9 | 13% (inactive)
13 | CN(C)c1ccc(C(O)(c2ccc(N(C)C)cc2)c2ccc(N(C)C)cc2)cc1 [METHYLROSANILINE] | 48 | 103% (active)
14 | CC(=O)NCCc1nc2ccccc2n1Cc1ccc(C(C)C)cc1 | 6 | 26%
15 | COc1cc(C(=O)ON=C(N)Cc2cccc3ccccc23)cc(OC)c1OC | 26 | 89% (active)
16 | C[n+]1c2ccccc2nc2ccc(NCCO)cc21 | 8 | 11% (inactive)
17 | COc1ccc(-c2cc3c(SCC(=O)Nc4cc(C(F)(F)F)ccc4Cl)nccn3n2)cc1 | 6 | 17% (inactive)

Row | SMILES | inhibition at 1.1 µM (hERG (Kv11.1, KCNH2) [1]) [%] | inhibition at 11.1 µM (hERG (Kv11.1, KCNH2) [2])
18 | CC1(c2ccccc2)Nc2ccccc2-c2nc3ccccc3n21 (stereo not drawn) | -10 | 29%
19 | Cc1ccc(N2C(=O)C3C(C2=O)C2(c4ccccc4)C(=O)C3(c3ccccc3)C(c3ccccc3)=C2c2ccccc2)cc1 (stereo not drawn) | 10 | -3% (inactive)
20 | COc1ccccc1CNC(=O)CCn1c(=O)[nH]c2ccsc2c1=O | -1 | 5% (inactive)
21 | O=[N+]([O-])c1ccc(C=NNc2nc3ccccc3[nH]2)cc1 | 15 | 44%
22 | CCOc1ccc(/C=C/c2nc(=O)c3ccccc3o2)cc1 | 1 | 19% (inactive)
23 | CCC(O)c1ccc(Br)cc1NC(=O)c1cccc(Cl)c1 (stereo not drawn) | 13 | 22% (inactive)
24 | CCOc1cc(CNC(C)C(O)c2ccccc2)cc(Cl)c1OCC (stereo not drawn) | 2 | 48%
25 | CN1CCN(c2nc(Nc3ccc(O)cc3)nc3ccccc23)CC1 | 31 | 31%
26 | OC(CNCc1ccccc1)Cn1c2ccccc2c2ccccc21 (stereo not drawn) | 41 | 94% (active)
27 | CCCCCCC(O)(c1ccc(F)cc1)C(CN1CCOCC1)c1ccccc1 (stereo not drawn) | 0 | 71% (active)
28 | CCc1c(C)c(=N)c2ccccc2n1C | 6 | 11% (inactive)
29 | O=C1CC(O)(C(F)(F)C(F)(F)F)Oc2ccccc21 (stereo not drawn) | -9 | 3% (inactive)
30 | CCOc1cc(Cl)c(C(C)NC(=O)c2cccc(OC)c2)cc1OCC (stereo not drawn) | -3 | 9% (inactive)
31 | COc1ccc(C2Sc3ccccc3N=C3C2=C(O)c2ccccc23)cc1 (stereo not drawn) | -2 | 26%
32 | COc1ccc(CN2CCCC(C(=O)c3ccc(C(F)(F)F)cc3)C2)c(O)c1 (stereo not drawn) | 58 | 100%
33 | Oc1ccc(C(=C(Cl)Cl)c2ccc(O)cc2)cc1 | 7 | 15% (inactive)
34 | O=C(NC1CCN(Cc2ccccc2)CC1)c1cc(-c2cccnc2)nc2ccc(Cl)cc12 | 18 | 86% (active)
